Earlier results, collected in patent US6159733A, “Method for photoinactivating malignant cells” (priority 1996, dated 2000).
Where two headings read alike, the source gives them in different places.

Assays:
[1] = system: cancer cell; conditions: conditions of the CFU-GM/BFU-E survival data; cited from earlier work
[2] = system: malignant cells; conditions: cited from earlier work
[3] = system: pluripotent stem cells; conditions: Sieber, Photochem Photobiol. 46:71 (1987); cited from earlier work
[4] = system: cell lines in BM mixtures; conditions: cited from earlier work
[5] = system: CFU-GM; conditions: cited from earlier work
[6] = system: BFU-E; conditions: cited from earlier work
[7] = system: multidrug resistance (mdr) pump; conditions: cited from earlier work
[8] = system: cell types; conditions: cited from earlier work
[9] = Atzpodien, Cancer Res. 46:4892 (1986)

**Q.** Which “reduction of cancer cell survival” value [1] does the source give for `CCCCN1C(=O)C(=CC=CC=C2Oc3ccccc3N2CCCS(=O)(=O)O)C(=O)N(CCCC)C1=S` [MC 540, merocyanine-540] here?
**A.** Its value is 4-5 log10.

**Q.** What about the “photoinactivation of malignant cells” value [2] of the same molecule?
**A.** Its value is “successfully achieved”.

**Q.** What about the “depletion of murine pluripotent stem cells” value [3] of the same molecule?
**A.** Its value is 1 log10.

**Q.** And the “photoinactivation of cell lines mixed with BM” value ([4]; BM fraction=0.95-0.99)?
**A.** Its value is “more effectively inactivated in mixtures”.

**Q.** What about the “surviving fraction of CFU-GM” value [5, 9] of the same molecule?
**A.** Its value is 0.18.

**Q.** And the “surviving fraction of CFU-GM” value ([5]; Gulliya, Blood 73:1059 (1989))?
**A.** The value was 0.17.

**Q.** And the “surviving fraction of BFU-E” value [6, 9]?
**A.** The value was 0.14.

**Q.** What about the “surviving fraction of BFU-E” value ([6]; Gulliya, Blood 73:1059 (1989)) of the same molecule?
**A.** The value was 0.04.

**Q.** For `COc1ccc(CCN(C)CCCC(C#N)(c2ccc(OC)c(OC)c2)C(C)C)cc1OC` (stereo not drawn) [verapamil], which “inhibition of the multidrug resistance (mdr) pump” value [7] is on record?
**A.** Its value is “known inhibitor”.

**Q.** For Photofrin, which “relation of uptake and photosensitivity” value ([8]; Williams, Photochem. Photobiol. 46:733 (1987)) is on record?
**A.** Its value is “increased uptake resulted in increased photosensitivity for each cell type”.

**Q.** And the “differences in photoinactivation between cell types” value ([8]; despite significant differences in photosensitizer uptake)?
**A.** The value was “marginal differences in photoinactivation”.

**Q.** Which results are given for “benzoporphyrinderivative monoacid ring A [BPD-MA]”?
**A.** reduction of cancer cell survival [1]: 4-5 log10; surviving fraction of CFU-GM ([5]; cfu-gm): 0.04; surviving fraction of BFU-E ([6]; bfu-e): 0.05

**Q.** Which “reduction of cancer cell survival” value [1] does the source give for dihematoporphyrin ether [DHE] here?
**A.** Its value is 4-5 log10.

**Q.** And the “photoinactivation of malignant cells” value [2]?
**A.** Its value is “successfully achieved”.

**Q.** What about the “surviving fraction of CFU-GM” value ([5]; Atzpodien, Blood 70:484 (1987)) of the same molecule?
**A.** The value was 0.29.

**Q.** And the “surviving fraction of CFU-GM” value ([5]; Lemoli, Blood 81:793 (1993))?
**A.** Its value is 0.05.

**Q.** And the “surviving fraction of BFU-E” value ([6]; Atzpodien, Blood 70:484 (1987))?
**A.** The value was 0.47.

**Q.** What about the “surviving fraction of BFU-E” value ([6]; Lemoli, Blood 81:793 (1993)) of the same molecule?
**A.** The value was 0.10.

**Q.** Which “reduction of cancer cell survival” value [1] does the source give for “sulphonate aluminum phthalocyanine [AlSPc]” here?
**A.** The value was 4-5 log10.

**Q.** What about the “photoinactivation of malignant cells” value [2] of the same molecule?
**A.** The value was “successfully achieved”.

**Q.** And the “photoinactivation of cell lines mixed with BM” value ([4]; BM fraction=0.99)?
**A.** The value was “photoinactivated as effectively as unmixed cell lines”.

**Q.** What about the “surviving fraction of CFU-GM” value ([5]; cfu-gm) of the same molecule?
**A.** The value was 0.60.
